pEC50: −log10 of the molar value. Where two headings read alike, the source gives them in different places. Square brackets hold non-standard residues; d marks the D form. Ends that are not written are not given here. Peptide text beside a SMILES is read from it. Phe(4-NO2) = N[C@@H](Cc1ccc([N+](=O)[O-])cc1)C(=O)O; Phe(4-Cl) = N[C@@H](Cc1ccc(Cl)cc1)C(=O)O; Phe(4-F) = N[C@@H](Cc1ccc(F)cc1)C(=O)O; NMeR = CN[C@@H](CCCNC(=N)N)C(=O)O; Aoc = NCCCCCCCC(=O)O; Sar = CNCC(=O)O
Legend:
Mu opioid receptor (MOR) = Mu opioid receptor (MOR) (Homo sapiens, UniProt P35372); assay: cell-based; format: cell-based; settings: for EC50: read-out: Activity (EC50, nM) MOR
Chain of Mu opioid receptor (MOR) (P35372 whole entry): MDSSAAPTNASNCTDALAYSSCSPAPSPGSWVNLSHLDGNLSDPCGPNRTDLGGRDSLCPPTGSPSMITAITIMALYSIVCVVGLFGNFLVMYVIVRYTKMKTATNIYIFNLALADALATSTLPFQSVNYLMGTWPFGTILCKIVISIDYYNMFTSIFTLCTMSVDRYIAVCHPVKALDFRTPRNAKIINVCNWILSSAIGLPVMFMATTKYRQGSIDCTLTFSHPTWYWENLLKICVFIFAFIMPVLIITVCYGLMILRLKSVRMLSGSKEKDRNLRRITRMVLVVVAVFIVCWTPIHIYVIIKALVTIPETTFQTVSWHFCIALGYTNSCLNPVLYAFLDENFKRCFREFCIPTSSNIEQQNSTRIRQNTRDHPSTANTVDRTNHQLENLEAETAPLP

[1] = target: Delta opioid receptor (DOR) (Homo sapiens, UniProt P41143); assay: cell-based; format: cell-based; settings: for EC50: read-out: Activity (EC50, nM) DOR
Chain of Delta opioid receptor (DOR) (P41143 whole entry): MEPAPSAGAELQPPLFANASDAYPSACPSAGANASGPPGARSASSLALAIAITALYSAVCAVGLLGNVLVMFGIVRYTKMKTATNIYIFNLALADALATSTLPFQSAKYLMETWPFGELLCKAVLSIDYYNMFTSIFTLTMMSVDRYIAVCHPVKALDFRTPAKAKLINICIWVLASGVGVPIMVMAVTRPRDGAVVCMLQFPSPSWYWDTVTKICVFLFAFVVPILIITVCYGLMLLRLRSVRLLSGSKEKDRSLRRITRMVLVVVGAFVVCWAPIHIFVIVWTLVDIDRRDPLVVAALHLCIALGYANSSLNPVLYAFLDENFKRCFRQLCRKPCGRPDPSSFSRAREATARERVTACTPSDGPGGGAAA

[2] = target: Kappa opioid receptor (KOR) (Homo sapiens, UniProt P41145); assay: cell-based; format: cell-based
Chain of Kappa opioid receptor (KOR) (P41145 whole entry): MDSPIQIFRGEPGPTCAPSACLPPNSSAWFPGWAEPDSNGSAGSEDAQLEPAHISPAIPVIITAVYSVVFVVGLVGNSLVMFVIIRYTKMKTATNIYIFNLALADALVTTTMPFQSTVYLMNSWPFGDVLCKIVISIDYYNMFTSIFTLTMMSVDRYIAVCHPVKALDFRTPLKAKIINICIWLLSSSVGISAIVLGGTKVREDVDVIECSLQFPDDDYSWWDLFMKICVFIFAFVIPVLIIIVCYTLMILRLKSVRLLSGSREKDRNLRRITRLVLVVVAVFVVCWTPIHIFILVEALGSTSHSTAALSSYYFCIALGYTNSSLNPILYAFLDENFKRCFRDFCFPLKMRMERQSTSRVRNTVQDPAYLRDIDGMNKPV

[3] = target: T1, bovine pancreatic trypsin (Bos taurus, UniProt P00760); assay: Stability in bovine trypsin; format: in vitro ADME; settings: bovine pancreatic trypsin 2.5 μg/mL, NH4HCO3 buffer pH 8-8.5, 37° C., 100 μM peptide; for half-life: isolated enzyme trypsin; for half-life at 100 µM: bovine pancreatic trypsin solution
T1 construct: from tissue; host or cells: bovine pancreas
T1 sequence (P00760 24-246): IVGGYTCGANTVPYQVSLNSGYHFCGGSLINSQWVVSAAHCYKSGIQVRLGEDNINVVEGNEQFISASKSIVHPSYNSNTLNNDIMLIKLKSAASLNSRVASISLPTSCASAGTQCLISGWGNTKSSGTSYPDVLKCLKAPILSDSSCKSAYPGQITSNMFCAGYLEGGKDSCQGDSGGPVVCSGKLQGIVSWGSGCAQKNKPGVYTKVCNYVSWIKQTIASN
Description: The stability of the peptides was analysed in typsin, plasma and water. Stability of linear peptides is generally low due to rapid degradation by endogenous peptidases and proteases. While stability in bodily fluids is important, absolute stability may not be prudent or desirable due to potential build-up in vivo leading to adverse side effects, and/or hazards to the environment and recirculation of exceptionally stable compounds in waterways. Thus, compounds that are extremely stable in either plasma or typsin are not generally considered “drug-like”.
Stability in bovine trypsin was analysed for SEQ ID Nos. 2 to 7 and 11 to 17. Peptides were added to trypsin solution (bovine pancreatic trypsin 2.5 μg/mL in NH4HCO3 buffer, pH approximately 8-8.5, 37° C.) in a water bath with final concentrations of 100 μM peptide. A 50 μL sample was taken immediately and precipitated in 150 μL of cold acetonitrile (9:1 acetonitrile:water) This sample became the baseline, or t=0 min sample. The trypsin peptide mixture was immediately returned to the water bath and subsequent 50 μL samples were taken at 5, 10, 15, 30, 60 and 120 min. At each time point, the 50 μL sample was collected and immediately added to cold acetonitrile (ACN). Each sample was vortexed for 30 sec and then centrifuged at room temperature (RT) (13K rpm, 5 min). 150 μL of the supernatant was taken and directly place in a glass HPLC vial for LCMS analysis.

Stability in rat plasma = format: in vitro ADME; settings: 37° C., 100 μM peptide; for half-life at 100 µM: both sexes, Wistar
Description: Stability in plasma was assessed in rat plasma. Plasma was collected in-house from adult mixed-gender Wistar rats, prepared using 2% EDTA as per standard practice. Peptides were added to the rat plasma samples at 37° C. in a water bath with final concentrations of 100 μM (1:9 peptide in water:plasma). The assay was then carried out in the same manner as the assay in bovine trypsin.

KOR = KOR (Homo sapiens, UniProt P41145); assay: cell-based; format: cell-based; settings: read-out: reduction in maximal response
Chain of KOR (P41145 whole entry): as the sequence (P41145 whole entry) above

| Compound | cAMP assay MOR 1 μM (Mu opioid receptor (MOR)) | cAMP assay DOR 1 μM [1] | cAMP assay KOR 1 μM [2] | cAMP assay MOR 10 μM (Mu opioid receptor (MOR)) | half-life at 100 µM (Stability in rat plasma) [h] | cAMP assay DOR 10 μM [1] | cAMP assay KOR 10 μM [2] | half-life at 100 µM [3] [h] | other results |
| --- | --- | --- | --- | --- | --- | --- | --- | --- | --- |
| 2-NH2-Phe-Phe-Leu-Gly-Arg-Arg (FFLGRR; also: 2-NH2 (N-terminal amino modification) on Phe, placement unclear) [SEQ ID NO. 36, reference compound] | no measurable potency | no measurable potency | no measurable potency |  |  |  |  |  |  |
| CC(C)C[C@H](NC(=O)[C@H](Cc1ccccc1)NC(=O)CN(C)C(=O)[C@@H](N)Cc1ccc(O)cc1)C(=O)N[C@@H](CCCNC(=N)N)C(=O)N[C@H](CCCNC(=N)N)C(N)=O [SEQ ID NO. 3, NH2-Tyr-Sar-Phe-Leu-Arg-DArg-NH2] (H-Y[Sar]FLR[dR]-NH2) | −0.68 | −2.27 | 27.24 | 2.17 | 1.2 | 2.24 | 43.58 |  | Half Life Trypsin [3]: 0.227 h |
| CC(C)C[C@H](NC(=O)[C@H](Cc1ccc([N+](=O)[O-])cc1)NC(=O)CN(C)C(=O)[C@@H](N)Cc1ccc(O)cc1)C(=O)N[C@H](CCCNC(=N)N)C(=O)N[C@@H](CCCNC(=N)N)C(N)=O [SEQ ID NO. 5, NH2-Tyr-Sar-(4-NO2)Phe-Leu-DArg-Arg-NH2] (H-Y[Sar][Phe(4-NO2)]L[dR]R-NH2) | −0.05 | 0.05 | 33.44 | 4.32 |  | 2.02 | 43.14 |  | Half Life Trypsin [3]: 54.167 h; half-life (Stability in rat plasma): 0.478 h |
| CC(C)C[C@H](NC(=O)[C@H](Cc1ccccc1)NC(=O)CN(C)C(=O)[C@@H](N)Cc1ccc(O)cc1)C(=O)N[C@H](CCCNC(=N)N)C(=O)N[C@@H](CCCNC(=N)N)C(N)=O [SEQ ID NO. 6, NH2-Tyr-Sar-Phe-Leu-DArg-Arg-NH2] (H-Y[Sar]FL[dR]R-NH2) | 1.04 | −0.03 | 14.22 | 7.84 |  | 2.25 | 35.13 |  | half-life [3]: 21.1 h |
| CC(C)C[C@H](NC(=O)[C@H](Cc1ccccc1)NC(=O)CN(C)C(=O)[C@@H](N)Cc1ccc(O)cc1)C(=O)N[C@H](CCCNC(=N)N)C(=O)N[C@H](CCCNC(=N)N)C(N)=O [SEQ ID NO. 7, NH2-Tyr-Sar-Phe-Leu-DArg-DArg-NH2] (H-Y[Sar]FL[dR][dR]-NH2) | 0.13 | −0.68 | 18.27 | 4.19 |  | 2.53 | 36.03 |  | half-life [3]: 9.78 h |
| CC(C)C[C@H](NC(=O)[C@H](Cc1ccc(Cl)cc1)NC(=O)CN(C)C(=O)[C@@H](N)Cc1ccc(O)cc1)C(=O)N[C@@H](CCCNC(=N)N)C(=O)N[C@H](CCCNC(=N)N)C(N)=O [SEQ ID NO. 11, NH2-Tyr-Sar-(4-Cl)Phe-Leu-Arg-DArg-NH2] (H-Y[Sar][Phe(4-Cl)]LR[dR]-NH2) | −0.86 | −1.18 | 27.7 | 1.37 |  | 4.27 | 33.99 | 0.257 |  |
| CC(C)C[C@H](NC(=O)[C@H](Cc1ccc(F)cc1)NC(=O)CN(C)C(=O)[C@@H](N)Cc1ccc(O)cc1)C(=O)N[C@@H](CCCNC(=N)N)C(=O)N[C@H](CCCNC(=N)N)C(N)=O [SEQ ID NO. 12, NH2-Tyr-Sar-(4-F)Phe-Leu-Arg-DArg-NH2] (H-Y[Sar][Phe(4-F)]LR[dR]-NH2) |  |  |  |  | 0.532 |  |  | 0.228 | EC50 (Mu opioid receptor (MOR)): 3450 nM; EC50 ([2]; read-out: Activity (EC50, nM) KOR): 6.7 nM |
| CC(C)C[C@H](NC(=O)[C@H](Cc1ccc(Cl)cc1)NC(=O)CN(C)C(=O)[C@@H](N)Cc1ccc(O)cc1)C(=O)N(C)[C@@H](CCCNC(=N)N)C(=O)N[C@H](CCCNC(=N)N)C(N)=O [SEQ ID NO. 13, NH2-Tyr-Sar-(4-Cl)Phe-Leu-NMA-DArg-NH2] (H-Y[Sar][Phe(4-Cl)]L[NMeR][dR]-NH2) |  |  |  |  | 3.99 |  |  | 4.6 | pEC50 (Mu opioid receptor (MOR)): < 5.00; pEC50 [1]: < 5.00 |
| CC(C)C[C@H](NC(=O)[C@H](Cc1ccc(F)cc1)NC(=O)CN(C)C(=O)[C@@H](N)Cc1ccc(O)cc1)C(=O)N(C)[C@@H](CCCNC(=N)N)C(=O)N[C@H](CCCNC(=N)N)C(N)=O [SEQ ID NO. 14, NH2-Tyr-Sar-(4-F)Phe-Leu-NMA-DArg-NH2] (H-Y[Sar][Phe(4-F)]L[NMeR][dR]-NH2) |  |  |  |  | 5.4 |  |  | 27.1 | EC50 (Mu opioid receptor (MOR)): 4000 nM; EC50 [1]: 1660 nM |
| CC(C)C[C@H](NC(=O)[C@H](Cc1ccc([N+](=O)[O-])cc1)NC(=O)CN(C)C(=O)[C@@H](N)Cc1ccc(O)cc1)C(=O)N(C)[C@@H](CCCNC(=N)N)C(=O)N[C@H](CCCNC(=N)N)C(N)=O [SEQ ID NO. 15, NH2-Tyr-Sar-(4-NO2)Phe-Leu-NMA-DArg-NH2] (H-Y[Sar][Phe(4-NO2)]L[NMeR][dR]-NH2) |  |  |  |  |  |  |  |  | EC50 [1]: 1320 nM |
| CC(C)C[C@H](NC(=O)[C@H](Cc1ccc(Cl)cc1)NC(=O)CN(C)C(=O)[C@@H](N)Cc1ccc(O)cc1)C(=O)N[C@@H](CCCCN)C(=O)N[C@H](CCCNC(=N)N)C(N)=O [SEQ ID NO. 16, NH2-Tyr-Sar-(4-Cl)Phe-Leu-Lys-DArg-NH2] (H-Y[Sar][Phe(4-Cl)]LK[dR]-NH2) |  |  |  |  | 1.17 |  |  |  | Half Life Trypsin [3]: 1.16 h |
| CC(C)C[C@H](NC(=O)[C@H](Cc1ccc(Cl)cc1)NC(=O)CN(C)C(=O)[C@@H](N)Cc1ccc(O)cc1)C(=O)N[C@@H](CCCNC(=N)N)C(=O)N(C)[C@@H](CCCNC(=N)N)C(N)=O [SEQ ID NO. 17, NH2-Tyr-Sar-(4-Cl)Phe-Leu-Arg-NMA-NH2] (H-Y[Sar][Phe(4-Cl)]LR[NMeR]-NH2) |  |  |  |  | 2.9 |  |  | > 16.7 |  |
| CC[C@H](C)[C@H](NC(=O)[C@@H](CCCNC(=N)N)NC(=O)[C@H](CCCNC(=N)N)NC(=O)[C@H](CC(C)C)NC(=O)[C@H](Cc1ccc(Cl)cc1)NC(=O)CN(C)C(=O)[C@@H](N)Cc1ccc(O)cc1)C(=O)N[C@@H](CCCNC(=N)N)C(N)=O [SEQ ID NO. 20, NH2-Tyr-Sar-(4-Cl)Phe-Leu-Arg-DArg-Ile-Arg-NH2] |  |  |  |  |  |  |  |  | reduction in maximal response after pre-treatment (KOR): ~50%; pEC50 (Mu opioid receptor (MOR)): < 5.00; pEC50 [1]: 5.45; cAMP activity in the presence of naloxone, KOR cells [2]: significantly inhibited |
| CC[C@H](C)[C@H](NC(=O)[C@@H](CCCNC(=N)N)NC(=O)[C@H](CCCNC(=N)N)NC(=O)[C@H](CC(C)C)NC(=O)[C@H](Cc1ccc(Cl)cc1)NC(=O)CN(C)C(=O)[C@@H](N)Cc1ccc(O)cc1)C(=O)N[C@H](CCCNC(=N)N)C(N)=O [SEQ ID NO. 25, NH2-Tyr-Sar-(4-Cl)Phe-Leu-Arg-DArg-Ile-DArg-NH2] |  |  |  |  |  |  |  |  | pEC50 (Mu opioid receptor (MOR)): 5.79; pEC50 [1]: < 5.00 |
| CC(C)C[C@H](NC(=O)[C@H](Cc1ccc(Cl)cc1)NC(=O)CN(C)C(=O)[C@@H](N)Cc1ccc(O)cc1)C(=O)N[C@@H](CCCNC(=N)N)C(=O)N[C@H](CCCNC(=N)N)C(=O)NCCCCCCCC(=O)O [SEQ ID NO. 28, NH2-Tyr-Sar-(4-Cl)Phe-Leu-Arg-DArg-C7H14-COOH] (H-Y[Sar][Phe(4-Cl)]LR[dR][Aoc]-OH) |  |  |  |  |  |  |  |  | pEC50 (Mu opioid receptor (MOR)): < 5.00; pEC50 [1]: < 5.00 |
